Results from ChEMBL document CHEMBL5247585, “Design, synthesis, and evaluation of 4(1H)-quinolinone and urea derivatives as KRASG12C inhibitors with potent antitumor activity against KRAS-mutant non-small cell lung cancer” (Eur J Med Chem, 2022).
The source made the active and inactive calls. No cut-off for these calls is given here.

Legend:
[1] = test system: NCI-H358; assay: Antiproliferative activity against human NCI-H358 cells harboring KRAS G12C mutant assessed as reduction in cell viability incubated for 72 hrs by MTT assay; format: functional, cell-based; conditions: NCI-H358, 72 h
[2] = test system: A549; assay: Antiproliferative activity against human A549 cells harboring KRAS G12S mutant assessed as reduction in cell viability incubated for 72 hrs by MTT assay; format: functional, cell-based; conditions: A549, 72 h
[3] = test system: NCI-H2228; assay: Antiproliferative activity against human NCI-H2228 cells harboring wild type KRAS assessed as reduction in cell viability incubated for 72 hrs by MTT assay; format: functional, cell-based; conditions: NCI-H2228, 72 h
[4] = test system: NCI-H23; assay: Antiproliferative activity against human NCI-H23 cells harboring KRAS G12C mutant assessed as reduction in cell viability incubated for 72 hrs by MTT assay; format: functional, cell-based; conditions: NCI-H23, 72 h
[5] = Selectivity index, ratio of IC50 for human A549 cells harboring KRAS G12S mutant to IC50 for human NCI-H23 cells harboring KRAS G12C mutant; format: functional
[6] = Selectivity index, ratio of IC50 for human A549 cells harboring KRAS G12S mutant to IC50 for human NCI-H358 cells harboring KRAS G12C mutant; format: functional
[7] = Selectivity index, ratio of IC50 for human NCI-H2228 cells harboring wild type KRAS to IC50 for human NCI-H358 cells harboring KRAS G12C mutant; format: functional
[8] = Selectivity index, ratio of IC50 for human NCI-H2228 cells harboring wild type KRAS to IC50 for human NCI-H23 cells harboring KRAS G12C mutant; format: functional
[9] = test system: GTPase KRas (Homo sapiens), P01116 [G12C]; assay: (§1) Inhibition of 6His tagged Mant-GDP loaded human KRAS G12C mutant (1 to 169 residues) expressed in Escherichia coli BL21 (DE3) cells assessed as inhibition of SOS1-mediated nucleotide exchange at 10 uM preincubated with compound for 1 hrs followed by addition of GTP and SOS1 protein and measured every 90 sec for 2 hrs by fluorescence based assay; conditions: time 3.0 hrs
[10] = biological target: GTPase KRas (Homo sapiens) (UniProt P01116); assay: Covalent binding affinity to 6his tagged GDP bound human wildtype KRAS expressed in Escherichia coli BL21 (DE3) cells at 200 uM incubated for 24 hrs by LC-MS/MS analysis
[11] = test system: GTPase KRas (Homo sapiens), P01116 [G12C]; assay: Covalent binding affinity to 6His tagged GDP bound human KRAS G12C mutant (1 to 169 residues) expressed in Escherichia coli BL21 (DE3) cells at 200 uM incubated for 24 hrs by LC-MS /MS analysis
[12] = test system: GTPase KRas (Homo sapiens), P01116 [G12C]; assay: as §1, with “[…]” for “SOS1-mediated”, “EDTA” for “SOS1 protein”; conditions: time 3.0 hrs

Row | SMILES | IC50 [1] [µM] | IC50 [2] [µM] | IC50 [3] [µM] | IC50 [4] [µM] | Ratio IC50 [5] | Ratio IC50 [6] | Ratio IC50 [7] | Ratio IC50 [8] | inhibition [9] | Activity [10] | Activity [11] | inhibition [12]
1 | O=C(NC1CCN(C(=O)CCl)C1)c1cc(=O)c2cc(Cl)c(I)cc2[nH]1 (stereo unspecified) | 5.4 | 10.2 | 8.2 | 3.8 | – | – | – | – | – | – | – | –
2 | C=CC(=O)N1CC[C@H](NC(=O)c2cc(=O)c3cc(Cl)c(I)cc3[nH]2)C1 | 14.9 | 24.4 | 13.1 | 10.3 | – | – | – | – | – | – | – | –
3 | C=CC(=O)N1CC[C@@H](NC(=O)Nc2ccc(Cl)cc2)C1 | > 100 | > 100 | > 100 | > 100 | – | – | – | – | – | – | – | –
4 | C=CC(=O)NC1CCN(C(=O)c2cc(=O)c3ccccc3[nH]2)CC1 | 44.8 | > 100 | > 100 | > 100 | – | – | – | – | – | – | – | –
5 | O=C(CCl)NC1CCN(C(=O)c2cc(=O)c3cc(Cl)c(I)cc3[nH]2)CC1 | 4.5 | 9.8 | 8.6 | 2.7 | 2 | 2 | 2 | 2 | – | – | – | –
6 | C=CS(=O)(=O)NC1CCN(C(=O)c2cc(=O)c3cc(Cl)c(I)cc3[nH]2)CC1 | 9.1 | 11.9 | 19.4 | 6.4 | 2 | 2 | 2 | 2 | – | – | – | –
7 | C=CC(=O)N1CC[C@@H](NC(=O)Nc2ccc(Cl)c(Cl)c2)C1 | 45.5 | > 100 | 61.9 | 41.4 | – | – | – | – | – | – | – | –
8 | O=C(CCl)N1CCN(C(=O)Nc2ccc(Cl)c(C(F)(F)F)c2)CC1 | 4.6 | 1.5 | 0.6 | 9.2 | – | – | – | – | – | – | – | –
9 | C=CC(=O)N1CC[C@H](NC(=O)Nc2ccc(Cl)cc2)C1 | > 100 | > 100 | > 100 | > 100 | – | – | – | – | – | – | – | –
10 | O=C(Nc1ccc(Cl)c(C(F)(F)F)c1)N[C@H]1CCN(C(=O)CCl)C1 | 2.4 | 11.3 | 7.3 | 1.5 | 3 | 3 | 3 | 3 | – | – | – | –
11 | C=CC(=O)N1CCC(NC(=O)Nc2ccc(Cl)c(Cl)c2)CC1 | > 100 | > 100 | 53.2 | > 100 | – | – | – | – | – | – | – | –
12 | O=C(Nc1ccc(Cl)c(C(F)(F)F)c1)N[C@@H]1CCN(C(=O)CCl)C1 | 4.5 | 26.1 | 4 | 4.6 | – | – | – | – | – | – | – | –
13 | C=CC(=O)N1CCC(NC(=O)Nc2ccc(Cl)c(C(F)(F)F)c2)CC1 | > 100 | > 100 | 45.8 | > 100 | – | – | – | – | – | – | – | –
14 | O=C(Nc1ccc(Cl)c(C(F)(F)F)c1)NC1CCN(C(=O)CCl)CC1 | 3.1 | 8 | 10.6 | 2.3 | – | – | – | – | Active | inactive | Active | inactive
15 | C=CC(=O)N1CC[C@@H](NC(=O)c2cc(=O)c3cc(Cl)c(I)cc3[nH]2)C1 | 10 | 20.3 | 24.6 | 11.6 | – | – | – | – | – | – | – | –
